Like-named read-outs stand apart in the source and are kept apart here.
Assays:
[1] = target: T1, human α7 nAChR (Homo sapiens, UniProt P36544); experiment: Calcium fluorescence assay on α7 nAChR expressed in Neuro2a cells, in the presence of PNU120596; type: cell-based; conditions: for EC50: human α7 nAChR in Neuro2a cells, PNU120596 10 μM present
T1 construct: expressed in transfected cells; host or cells: mouse neuroblastoma Neuro2a, transient co-transfection with Ric-3 (Ric3-pCMV6-XL5, OriGene) and the calcium sensor Case12
Procedure: A panel of the synthesized compounds was tested to determine their activity on α7 nAChR by fluorescence detection of cytoplasmic calcium rise (Figure 2a).
Mouse neuroblastoma Neuro2a cells were purchased from the Russian collection of cell cultures (Institute of Cytology, Russian Academy of Sciences, Saint Petersburg, Russia). Cells were cultured in Dulbecco’s modified Eagle’s essential medium (Paneco, Moscow, Russia) supplemented with 10% fetal bovine serum (Sigma, St. Louis, MO, USA). The cells one day before transfection were subcultured and plated at a density of 10,000 cells per well on a 96-well plate. The next day, Neuro2a cells were transiently transfected with plasmids coding α7 nAChR (human α7 nAChR-pCEP4) or its mutants, the chaperone Ric-3 (Ric3-pCMV6-XL5, OriGene, USA) and a fluorescent calcium sensor Case12 (pCase12-cyto vector, Evrogen, Russia) in molar ratio 4:1:1. Lipofectamine transfection protocol (Invitrogen, Waltham, MA, USA) was performed as recommended by the manufacturer. Transfected cells were grown at 37 °C in a CO2 incubator for 48 h.
Calcium […] assay was performed as described previously. Briefly, Transfected Neuro2a cells were grown on black 96-well plates (Corning, Somerville, MA, USA) at 37 °C in a CO2 incubator for 72 h, then growth medium was substituted with buffer containing 140 mM NaCl, 2 mM CaCl2, 2.8 mM KCl, 4 mM MgCl2, 20 mM HEPES, 10 mM glucose; pH 7.4.
Cells were incubated with the α7 nAChR positive allosteric modulator PNU120596 (10 μM, Tocris, Bristol, UK) for 20 min at room temperature before the addition of tested compounds. Plates were measured in microplate reader Hidex Sence (Hidex, Turku, Finland) using excitation at 485 nm and emission at 535 ± 10 nm. Fluorescence peak intensity in each well was expressed as a percentage of the maximal obtained response. Data files were analysed using Hidex Sence software (Hidex, Turku, Finland). Controls were run in the presence of 4 μM α-cobratoxin.
The R statistical programming environment “https://www.r-project.org/” (accessed on 16 June 2023) was used to analyze the results. Base R graphics and ggplot2 [54] graphical library were used for the data visualisation. Dose-response curves were fitted using “nlm” function and the following equation: response ~ (100/1 + (EC50/x)^n), where x denotes base 10 logarithm of ligand concentration in moles per liter (normalized to 1M) and n is the Hill coefficient. Libraries “rgl” “https://CRAN.R-project.org/package=rgl” (accessed on 16 May 2023) and “barplot3d” “https://cran.r-project.org/src/contrib/Archive/barplot3d/” (accessed on 16 May 2023) were used to generate the 3D bar chart shown on Figure 2b.
Figure 2 In vitro activity determination of the synthesized compounds. […] The receptor activation was detected as an increase in fluorescent signal in cell cytoplasm by fluorescence microscopy or as total fluorescence of the well in 96-well plate reader setup. Normalized fluorescence amplitude was plotted against base 10 logarithm of mole per liter concentration of the tested agonist and EC50 values were than calculated using dose-response equation. […] Substitutions in the 6th position of the indole ring (designated as X) were halogens (green shadow), hydrogen bond acceptors (yellow shadow) or hydrogen bond donors (blue shadow). Carboxy group modifications were comprised by free acid (Q = OH), ethers (Q = OCH3, OC2H5), and amides (Q = NH2, NHCH3).

[2] = test system: CD86 expression on macrophages; experiment: Flow cytometry of CD86 protein on macrophages; type: cell-based, human; conditions: 48 h incubation
Procedure: (§1) The effect of the above-listed compounds on the expression of the TLR4 receptor and the CD86 protein was studied by flow cytometry after 48 h incubation with macrophages. The interaction of bacterial endotoxins with the TLR4 receptor is known to activate the expression of several pro-inflammatory cytokine genes, while the co-stimulatory molecule CD86 plays an important role in […] inflammatory responses. A decrease in the expression of the TLR4 receptor was observed under the action of all tested compounds (Figure 4c,e), the rank order of these TLR4-suppressing effects was as follows: hypaphorine (14%) < PNU 282,987 (21%) < 6ID (31%).
(§2) Peripheral blood mononuclear cells (PBMCs) were separated by Ficoll-Paque PLUS density gradient centrifugation. PBMCs were placed in a sterile Petri dish and incubated at 37 °C for 2 h. Unattached cells were then removed by washing with PBS and substituted with fresh complete RPMI 1640 medium. To generate monocyte-derived macrophages (MDMs), 50 ng/mL GM-CSF was added to the isolated monocytes and cultured for 6 days to differentiate them into non-polarized MDMs.
(§3) Figure 4 The effects of PNU 282987, hypaphorine, and D-6-iodohypaphorine methyl ester (6ID) on macrophage membrane proteins expression. Cells were treated with these compounds for 48 h and then analyzed by flow cytometry. PNU 282,987 led to an increase in the (a) CD11b and (b) CD11c expression. (c): All tested compounds led to a decrease in TLR4 expression. (d): Macrophages stimulation with hypaphorine and 6ID promoted an increase in CD86 expression. Results obtained in three independent experiments on macrophages from different donors and presented as mean ± SD. One-way ANOVA tests with Tukey post hoc test: * p ˂0.05, ** p ˂ 0.01, **** p < 0.0001 in comparison with untreated cells.

[3] = test system: STAT3 phosphorylation; experiment: STAT3 phosphorylation in LPS-stimulated macrophages (flow cytometry); type: cell-based, human; conditions: compound 1 h, then LPS 3 h; control MFI 49
Procedure: To gain an insight into the signaling induced by the tested compounds, ERK1/2 and STAT3 phosphorylation was checked. Macrophages were treated with tested compounds for 1 h, after which they were stimulated with LPS for 3 h.
as §2
Figure 5 Effects of the analyzed compounds on signaling pathways in LPS-stimulated macrophages. Cells were treated with PNU 282987, hypaphorine, or 6-iodohypaphorine methyl ester (6ID) for 1 h and then stimulated with LPS for 3 h. Phosphorylated ERK1/2 and STAT3 were quantified by flow cytometry with specific antibodies. […] (c): Representative histogram showing the increase in ERK 1/2 phosphorylation in comparison to control. The numbers in the histograms show the MFI ± SD (n = 3). MFI—geometrical mean fluorescence intensity. One-way ANOVA tests with Tukey post hoc test: * p ˂ 0.05, ** p ˂ 0.01, *** p < 0.001 in comparison with untreated cells. TEXT PRINTED IN THE PICTURE: (c) Control: PE-ERK 1/2 Phospho: 193.7±1.5 | (c) PNU 282987: PE-ERK 1/2 Phospho: 251.3±13.7 | (c) Hy: PE-ERK 1/2 Phospho: 246.0±15.7 | (c) 6ID: PE-ERK 1/2 Phospho: 273.7±8.1 DOUBTS OF THE COPYIST ABOUT THIS PICTURE: Panel c: no measure or unit is printed beside the numbers; the x-axis label "PE-ERK 1/2 Phospho" is used as the measure / "Control" is the untreated reference rather than a substance; it is included because a value is printed with it

[4] = test system: CD11b expression on macrophages; experiment: Flow cytometry of macrophage membrane protein CD11b; type: cell-based, human; conditions: 48 h
Procedure: (§4) The selective agonist PNU 282,987 increased CD11b and CD11c protein expression by an average of 10% and 26%, respectively (Figure 4a,b).
as §2, §3

[5] = test system: TLR4 expression on macrophages; experiment: Flow cytometry of TLR4 receptor on macrophages; type: cell-based, human; conditions: 48 h incubation
Procedure: as §1, §2, §3

[6] = test system: CD11c expression on macrophages; experiment: Flow cytometry of macrophage membrane protein CD11c; type: cell-based, human; conditions: 48 h
Procedure: as §4, §2, §3

[7] = test system: α7 nAChR; design: method as in PMID 25775422; conditions: cited from earlier work; for EC50: read-out: EC50 / potency for α7 nAChR
[8] = target: T2, human α3-containing nAChRs (Homo sapiens, UniProt P32297); experiment: Calcium imaging of α3-containing nAChRs in SH-SY5Y cells (nicotine-induced calcium rise); type: cell-based; conditions: for agonism on α3* nAChR (calcium response): compound alone
T2 construct: endogenous in cells; host or cells: human neuroblastoma SH-SY5Y
Procedure: Two of the studied compounds with high and medium agonist potency for α7 nAChR (6CF and 6ID, Table 1) were tested for activity toward α3* nAChR by calcium imaging.
Normalized data are presented as mean ± standard error. n = 6–7.

T1 sequence (P36544 23-502): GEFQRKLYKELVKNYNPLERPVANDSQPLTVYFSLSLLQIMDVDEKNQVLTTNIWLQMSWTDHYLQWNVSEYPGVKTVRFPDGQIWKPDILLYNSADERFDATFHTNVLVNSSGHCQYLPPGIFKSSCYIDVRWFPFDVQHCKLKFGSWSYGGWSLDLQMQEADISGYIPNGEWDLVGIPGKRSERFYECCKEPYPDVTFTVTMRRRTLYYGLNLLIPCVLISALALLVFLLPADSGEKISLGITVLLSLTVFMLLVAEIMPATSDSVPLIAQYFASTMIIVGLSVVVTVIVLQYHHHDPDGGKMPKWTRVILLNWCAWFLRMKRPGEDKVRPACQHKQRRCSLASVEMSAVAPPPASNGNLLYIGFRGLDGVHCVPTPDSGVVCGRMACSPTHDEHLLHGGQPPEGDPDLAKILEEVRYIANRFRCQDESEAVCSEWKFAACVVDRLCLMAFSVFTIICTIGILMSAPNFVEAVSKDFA
T2 sequence (P32297 32-505): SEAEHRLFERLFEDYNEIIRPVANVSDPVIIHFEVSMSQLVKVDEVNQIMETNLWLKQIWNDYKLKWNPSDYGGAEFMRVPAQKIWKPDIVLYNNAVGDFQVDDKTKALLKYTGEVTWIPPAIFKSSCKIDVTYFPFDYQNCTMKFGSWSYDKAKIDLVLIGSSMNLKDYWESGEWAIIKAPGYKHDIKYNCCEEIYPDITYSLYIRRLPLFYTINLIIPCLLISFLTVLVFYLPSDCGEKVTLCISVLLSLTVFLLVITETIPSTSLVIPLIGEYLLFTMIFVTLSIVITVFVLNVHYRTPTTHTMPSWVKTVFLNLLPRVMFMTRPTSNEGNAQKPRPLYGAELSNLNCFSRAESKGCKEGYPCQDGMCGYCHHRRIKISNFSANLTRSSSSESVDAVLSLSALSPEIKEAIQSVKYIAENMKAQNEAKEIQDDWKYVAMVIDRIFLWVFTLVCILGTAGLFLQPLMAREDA

With `C[N+](C)(C)C(Cc1c[nH]c2cc([N+](=O)[O-])ccc12)C(=O)[O-]` (stereo not shown) [Compound 14, 6-nitrohypaphorine] the “α7 nAChR agonistic activity” value ([1]; at concentrations up to 1 mM, PNU 120,596 present) was “does not show any agonistic activity” and the EC50 [1] was “no agonistic activity”.
With `COC(=O)[C@H](Cc1c[nH]c2ccccc12)[N+](C)(C)C` [Compound 4, methyl ester of L-hypaphorine] the “increase in the expression of CD86” value [2] was 26% and the EC50 ([1]; read-out: EC50) was 27 µM.
With `O=C(N[C@H]1CN2CCC1CC2)c1ccc(Cl)cc1` [PNU 282,987] the “STAT3 phosphorylation, MFI” value [3] was “increase in the phosphorylation”, the “increase in the expression of CD86” value [2] was “no effect” and the “increase in CD11b protein expression” value [4] was 10%. For the same compound, the “decrease in the expression of the TLR4 receptor” value [5] was 21% and the “increase in CD11c protein expression” value [6] was 26%.
For `C[N+](C)(C)[C@@H](Cc1c[nH]c2cc(Br)ccc12)C(=O)[O-]` [6-bromohypaphorine], the “α7 nAChR agonistic activity” value ([7]; as previously reported) is listed as “agonistic activity in high micromolar concentrations”.
For `COC(=O)[C@@H](Cc1c[nH]c2cc(C(F)(F)F)ccc12)[N+](C)(C)C` [Compound 15, (D)-6-trifluoromethylhypaphorine methyl ester], the “agonism on α3* nAChR (calcium response)” value ([8]; listed as 6CF) was “Neither 6ID, which was most active agonist of α7 nAChR, nor 6CF showed detectable agonism on α3* nAChR at concentrations up to 30 µM”, the “agonism on α3* nAChR (calcium response)” value ([8]; listed as 6CF3) was “does not evoke noticeable calcium response in concentrations 10, 1, and 0.1 μM” and the IC50 ([8]; inhibition of nicotine (100 μM)-induced calcium rise) was 2.4 ± 1.2 µM. The EC50 ([1]; read-out: EC50) was 5.14 µM.

— PMC10305119, “Analogs of 6-Bromohypaphorine with Increased Agonist Potency for α7 Nicotinic Receptor as Anti-Inflammatory Analgesic Agents” (Marine Drugs, 2023)
